Data from patent EP1752193A1, “Use of one or more cyclic 1,2-alkylene carbonates as stabilizer and activity enhancer for preservatives, corresponding composition” (Dr. Straetmans Chemische Produkte GmbH, priority 2005, dated 2007).

What was measured:
Assay type in all cases: cell-based
Mikroorganismen = assay: synergistic enhancement of antimicrobial agents by cyclic 1,2-alkylene carbonates; conditions: combination of cyclic 1,2-alkylene carbonate with preservative or antimicrobial additive
Source text: Die Verwendung dieser zyklischen 1,2-Alkylencarbonate zur Herstellung von Mischungen mit herkömmlichen Konservierungsmitteln und der erfindungsgemäße Einsatz dieser Mischungen in kosmetischen oder dermatologischen Anwendungen zeigte überraschenderweise, dass die Effizienz der Konservierungsmittel in Konzentrationen, die für sich allein keine antimikrobielle Wirkung mehr zeigten, durch den Zusatz der zyklischen 1,2-Alkylencarbonate erheblich gesteigert werden kann und somit der Anteil der Konservierungsmittel in den entsprechenden Produkten signifikant gesenkt werden konnte.
Zyklische 1,2-Alkylencarbonate, für die dieser synergistische Effekt nachgewiesen werden konnten, finden sich bevorzugt in der Gruppe der linearen und verzweigten 1,2-Alkylencarboate mit einer Kettenlänge von n = 4 - 8, z.B. 1,2-Butylencarbonat, 1,2-Pentylencarbonat, 1,2-Hexylencarbonat und 1,2-Octylencarbonat.
Konservierungsmittel im Sinne der Erfindung, für die dieser synergistische Effekt nachgewiesen werden konnte, sind Methylparaben, Ethylparaben, Propylparaben, Isopropylparaben, Butylparaben und die Mischungen dieser Parabene, Phenoxyethanol, Benzoesäure und ihre Ester und Salze, Sorbinsäure und ihre Salze sowie Benzylalkohol. Die zu erwartenden synergistischen Effekte von 1,2-Alkylencarbonaten mit Iodopropinylbutylcarbamat, Formaldehyd and Formaldehyd-Abspalter (z.B. DMDM-Hydantoin, Imidazolinylharnstoff, Paraformaldehyd), Chlorphenesin, Bronopol, Methyldibromglutaronitril, Dehydracetsäure und ihre Salze, Polyaminopropylbiguanide, Chlorhexidin und seine Derivate (z.B. Chlorhexidinacetat, Chlorhexidingluconat, Chlorhexidinhydrochlorid), Methylisothiazolinon und Methylchloroisothiazolinone neben den in Anhang 6, Teil A und B der Kosmetikverordnung aufgeführten weiteren Stoffklassen oder Mischungen der genannten Konservierungsmittel werden ebenfalls in dieser Erfindung beansprucht.
Multifunktionellen Kosmetikadditive mit antimikrobiellen Eigenschaften im Sinne dieser Erfindung finden sich vor allem in der Gruppe der mittelkettigen polaren Substanzen. Diese Gruppe umfasst Polyole mit 5 - 12 Kohlenstoffatomen, wie z.B. Pentylenglycol, Hexylenglycol, 1,2-Hexandiol, Caprylyl Glycol oder 2-Methyl-1,3-propandiol, Monoester aus Glycerin und Fettsäuren der Kettenlänge n = 6 - 12, wie z.B. Glyceryl Caprylate, Glyceryl Caprate oder Glyceryl Laurate, Ether der Glycerins mit linearen oder verzweigten Alkanolen der Kettenlänge n = 6 - 12, wie z.B. das Ethylhexylglycerin sowie N-Acylderivate von Aminosäuren, z.B. N.Undecenylglycin.

Staphylococcus aureus = assay: microbiological challenge test (preservative efficacy, Ph. Eur. 1997 5.1.3); conditions: emulsion with 0,50 preservative, 2,00 carbonate where named
Source text: (§1) Ergebnisse des mikrobiologischen Belastungstests, durchgeführt nach europäischem Arzneibuch 1997: 5.1.3 Prüfung auf ausreichende Konservierung (entspricht Deutschem Arzneibuch: VIII.14) für die Beispielrezeptur nach 1.:
(§2) Ergebnisse des mikrobiologischen Belastungstests, durchgeführt nach europäischem Arzneibuch 1997: 5.1.3 Prüfung auf ausreichende Konservierung (entspricht Deutschem Arzneibuch: VIII.14) für die Beispielrezeptur nach 3.:
(§3) Ergebnisse des mikrobiologischen Belastungstests, durchgeführt nach europäischem Arzneibuch 1997: 5.1.3 Prüfung auf ausreichende Konservierung (entspricht Deutschem Arzneibuch: VIII.14) für die Beispielrezeptur nach 4.:
(§4) Ergebnisse des mikrobiologischen Belastungstests, durchgeführt nach europäischem Arzneibuch 1997: 5.1.3 Prüfung auf ausreichende Konservierung (entspricht Deutschem Arzneibuch: VIII.14) für die Beispielrezeptur nach 5.:
(§5) Ergebnisse des mikrobiologischen Belastungstests, durchgeführt nach europäischem Arzneibuch 1997: 5.1.3 Prüfung auf ausreichende Konservierung (entspricht Deutschem Arzneibuch: VIII.14) für die Beispielrezeptur nach 6.: […]

Escherichia Coli = assay: as above; conditions: emulsion with 0,50 preservative, 2,00 carbonate where named
Source text: as §1, §2, §3, §4, §5

Pseudomonas Aeruginosa = assay: as above; conditions: emulsion with 0,50 preservative, 2,00 carbonate where named
Source text: as §1, §2, §3, §4, §5

Aspergillus Niger = assay: as above; conditions: emulsion with 0,50 preservative, 2,00 carbonate where named
Source text: as §1, §2, §3, §4, §5

Candida Albicans = assay: as above; conditions: emulsion with 0,50 preservative, 2,00 carbonate where named
Source text: as §1, §2, §3, §4, §5

Row | SMILES | synergistische Effekt (Mikroorganismen) | Koloniebildende Einheiten / g nach Beimpfung mit: Staphylococcus aureus (Staphylococcus aureus; 0 Tage (inoculum)) | Koloniebildende Einheiten / g nach Beimpfung mit: Staphylococcus aureus (Staphylococcus aureus; 2 Tage) | Koloniebildende Einheiten / g nach Beimpfung mit: Staphylococcus aureus (Staphylococcus aureus; 7 Tage) | Koloniebildende Einheiten / g nach Beimpfung mit: Staphylococcus aureus (Staphylococcus aureus; 14 Tage) | Koloniebildende Einheiten / g nach Beimpfung mit: Staphylococcus aureus (Staphylococcus aureus; 28 Tage) | Koloniebildende Einheiten / g nach Beimpfung mit: Escherichia Coli (Escherichia Coli; 0 Tage (inoculum)) | Koloniebildende Einheiten / g nach Beimpfung mit: Escherichia Coli (Escherichia Coli; 2 Tage) | Koloniebildende Einheiten / g nach Beimpfung mit: Escherichia Coli (Escherichia Coli; 7 Tage) | Koloniebildende Einheiten / g nach Beimpfung mit: Escherichia Coli (Escherichia Coli; 14 Tage) | Koloniebildende Einheiten / g nach Beimpfung mit: Escherichia Coli (Escherichia Coli; 28 Tage) | Koloniebildende Einheiten / g nach Beimpfung mit: Pseudomonas Aeruginosa (Pseudomonas Aeruginosa; 0 Tage (inoculum)) | Koloniebildende Einheiten / g nach Beimpfung mit: Pseudomonas Aeruginosa (Pseudomonas Aeruginosa; 2 Tage) | Koloniebildende Einheiten / g nach Beimpfung mit: Pseudomonas Aeruginosa (Pseudomonas Aeruginosa; 7 Tage) | Koloniebildende Einheiten / g nach Beimpfung mit: Pseudomonas Aeruginosa (Pseudomonas Aeruginosa; 14 Tage) | Koloniebildende Einheiten / g nach Beimpfung mit: Pseudomonas Aeruginosa (Pseudomonas Aeruginosa; 28 Tage) | Koloniebildende Einheiten / g nach Beimpfung mit: Aspergillus Niger (Aspergillus Niger; 0 Tage (inoculum)) | Koloniebildende Einheiten / g nach Beimpfung mit: Aspergillus Niger (Aspergillus Niger; 2 Tage) | Koloniebildende Einheiten / g nach Beimpfung mit: Aspergillus Niger (Aspergillus Niger; 7 Tage) | Koloniebildende Einheiten / g nach Beimpfung mit: Aspergillus Niger (Aspergillus Niger; 14 Tage) | other results
1 | CCC1COC(=O)O1 (stereo not drawn) [BC, 1,2-Butylencarbonat] | Besonders ausgeprägt Effekte |  |  |  |  |  |  |  |  |  |  |  |  |  |  |  |  |  |  |  | 
2 | CCCCCCCC(=O)OCC(O)CO (stereo not drawn) [Glyceryl Caprylate] | Besonders ausgeprägte Effekte |  |  |  |  |  |  |  |  |  |  |  |  |  |  |  |  |  |  |  | 
3 | OCc1ccccc1 [Benzylalkohol] |  | 250000 Koloniebildende Einheiten / g | 100000 Koloniebildende Einheiten / g | 4000 Koloniebildende Einheiten / g | <10 Koloniebildende Einheiten / g | <10 Koloniebildende Einheiten / g | 810000 Koloniebildende Einheiten / g | 100000 Koloniebildende Einheiten / g | 100000 Koloniebildende Einheiten / g | 52000 Koloniebildende Einheiten / g | 8000 Koloniebildende Einheiten / g | 210000 Koloniebildende Einheiten / g | 40000 Koloniebildende Einheiten / g | 12000 Koloniebildende Einheiten / g | 1000 Koloniebildende Einheiten / g | <10 Koloniebildende Einheiten / g | 170000 Koloniebildende Einheiten / g | 64000 Koloniebildende Einheiten / g | 60000 Koloniebildende Einheiten / g | 59000 Koloniebildende Einheiten / g | Koloniebildende Einheiten / g nach Beimpfung mit: Aspergillus Niger (Aspergillus Niger; 28 Tage): 61000 Koloniebildende Einheiten / g; Koloniebildende Einheiten / g nach Beimpfung mit: Candida Albicans (Candida Albicans; 0 Tage (inoculum)): 410000 Koloniebildende Einheiten / g; Koloniebildende Einheiten / g nach Beimpfung mit: Candida Albicans (Candida Albicans; 2 Tage): 70000 Koloniebildende Einheiten / g; Koloniebildende Einheiten / g nach Beimpfung mit: Candida Albicans (Candida Albicans; 7 Tage): 50000 Koloniebildende Einheiten / g; Koloniebildende Einheiten / g nach Beimpfung mit: Candida Albicans (Candida Albicans; 14 Tage): 50000 Koloniebildende Einheiten / g; Koloniebildende Einheiten / g nach Beimpfung mit: Candida Albicans (Candida Albicans; 28 Tage): 45000 Koloniebildende Einheiten / g
4 | CCCCCCC(O)CO (stereo not drawn) [Caprylyl Glycol] | Besonders ausgeprägte Effekte |  |  |  |  |  |  |  |  |  |  |  |  |  |  |  |  |  |  |  | 
5 | CCCC1COC(=O)O1 (stereo not drawn) [PC, 1,2-Pentylencarbonat] | Besonders ausgeprägt Effekte |  |  |  |  |  |  |  |  |  |  |  |  |  |  |  |  |  |  |  | 
6 | OCCOc1ccccc1 [Phenoxyethanol] |  | 380000 Koloniebildende Einheiten / g | 100000 Koloniebildende Einheiten / g | 100000 Koloniebildende Einheiten / g | 84000 Koloniebildende Einheiten / g | 80000 Koloniebildende Einheiten / g | 3000000 Koloniebildende Einheiten / g | 100000 Koloniebildende Einheiten / g | 100000 Koloniebildende Einheiten / g | 100000 Koloniebildende Einheiten / g | 70000 Koloniebildende Einheiten / g | 600000 Koloniebildende Einheiten / g | 8000 Koloniebildende Einheiten / g | 10000 Koloniebildende Einheiten / g | 10000 Koloniebildende Einheiten / g | 10000 Koloniebildende Einheiten / g | 320000 Koloniebildende Einheiten / g | 60000 Koloniebildende Einheiten / g | 60000 Koloniebildende Einheiten / g | 60000 Koloniebildende Einheiten / g | Koloniebildende Einheiten / g nach Beimpfung mit: Aspergillus Niger (Aspergillus Niger; 28 Tage): 50000 Koloniebildende Einheiten / g; Koloniebildende Einheiten / g nach Beimpfung mit: Candida Albicans (Candida Albicans; 0 Tage (inoculum)): 310000 Koloniebildende Einheiten / g; Koloniebildende Einheiten / g nach Beimpfung mit: Candida Albicans (Candida Albicans; 2 Tage): 100000 Koloniebildende Einheiten / g; Koloniebildende Einheiten / g nach Beimpfung mit: Candida Albicans (Candida Albicans; 7 Tage): 100000 Koloniebildende Einheiten / g; Koloniebildende Einheiten / g nach Beimpfung mit: Candida Albicans (Candida Albicans; 14 Tage): 100000 Koloniebildende Einheiten / g; Koloniebildende Einheiten / g nach Beimpfung mit: Candida Albicans (Candida Albicans; 28 Tage): 80000 Koloniebildende Einheiten / g
